According to PubChem BioAssay AID624076 (Broad Institute, 2012):
Calls of active or inactive are those of the source. No rule for the calls is given here.

Test: PubChem AID 624076
Conditions: Carna kinase panel, IMAP FP / mobility shift, at 10 µM, hits give high values

inhibition (ABL(E255K)): -2.21% (inactive)
inhibition (ABL(T315I)): 3.27% (inactive)
inhibition (AKT2): 0.832% (inactive)
inhibition (AKT3): 0% (inactive)
inhibition (ALK(R1275Q)): -2.15% (inactive)
inhibition (ARG): -1.99% (inactive)
inhibition (AXL): 6.91% (inactive)
inhibition (AurB): 2.87% (inactive)
inhibition (AurC): 6.65% (inactive)
inhibition (BMPR1A): -9.7% (inactive)
inhibition (BRAF(V600E)): 14% (inactive)
inhibition (BRAF): 53.8%
inhibition (BRK): -3.52% (inactive)
inhibition (BRSK1): 10.2% (inactive)
inhibition (BTK): -3.98% (inactive)
inhibition (CDC7): -7.36% (inactive)
inhibition (CDK3): 42.4% (inactive)
inhibition (CDK5): 51.2%
inhibition (CDK9): 88.1%
inhibition (CHK2): 4.54% (inactive)
inhibition (CK1e): 10.4% (inactive)
inhibition (CK1g1): 85.8%
inhibition (CK2a2/b): 48.7% (inactive)
inhibition (CK1d): 23.2% (inactive)
inhibition (CLK1): 70.5%
inhibition (CLK2): 47.6% (inactive)
inhibition (COT): -1.49% (inactive)
inhibition (CRIK): 1.36% (inactive)
inhibition (CTK): -2.12% (inactive)
inhibition (CaMK2b): 0.457% (inactive)
inhibition (CaMK4): 6.27% (inactive)
inhibition (CaMK1d): 2.64% (inactive)
inhibition (DAPK1): 0.121% (inactive)
inhibition (DCAMKL2): 4.09% (inactive)
inhibition (DLK): -12.2% (inactive)
inhibition (DYRK1B): 20.8% (inactive)
inhibition (DYRK2): 17.2% (inactive)
inhibition (EGFR(L861Q)): 1.1% (inactive)
inhibition (EML4-ALK): -2.55% (inactive)
inhibition (EPHA3): -5.65% (inactive)
inhibition (EPHA5): -4.24% (inactive)
inhibition (EPHA8): -7.66% (inactive)
inhibition (EPHB1): 0.223% (inactive)
inhibition (EPHB4): -0.865% (inactive)
inhibition (FGFR1): 13.1% (inactive)
inhibition (FGFR3(K650E)): 12.5% (inactive)
inhibition (FGFR3(K650M)): 11.8% (inactive)
inhibition (FGFR4(N535K)): 3.65% (inactive)
inhibition (FGFR4(V550L)): 7.1% (inactive)
inhibition (FGFR4): 1.13% (inactive)
inhibition (FLT4): 40.4% (inactive)
inhibition (FMS): 9.78% (inactive)
inhibition (GSK3a): 99.9%
inhibition (HER4): -8.68% (inactive)
inhibition (HIPK1): 15.1% (inactive)
inhibition (HIPK3): 11% (inactive)
inhibition (Haspin): 9.76% (inactive)
inhibition (IGF1R): 0.373% (inactive)
inhibition (IKKb): 7.11% (inactive)
inhibition (IRAK4): -0.123% (inactive)
inhibition (IRR): 2.61% (inactive)
inhibition (JAK2): 5.28% (inactive)
inhibition (JAK3): 18.1% (inactive)
inhibition (JNK1): 11.5% (inactive)
inhibition (JNK2): 18.8% (inactive)
inhibition (JNK3): 16.9% (inactive)
inhibition (KIT(T670I)): 2.37% (inactive)
inhibition (KIT(V560G)): 8.71% (inactive)
inhibition (KIT): 5.43% (inactive)
inhibition (LATS2): 9.73% (inactive)
inhibition (LKB1): 16.6% (inactive)
inhibition (LOK): 4.96% (inactive)
inhibition (LTK): -0.743% (inactive)
inhibition (LYNa): 0.071% (inactive)
inhibition (MAP2K5): -7.9% (inactive)
inhibition (MAP3K1): 8.06% (inactive)
inhibition (MAP3K3): -21.6% (inactive)
inhibition (MAP4K2): 12.9% (inactive)
inhibition (MARK2): 13.3% (inactive)
inhibition (MARK4): 15.4% (inactive)
inhibition (MELK): 53.5%
inhibition (MER): 3.47% (inactive)
inhibition (MGC42105): 6.7% (inactive)
inhibition (MINK): 4.57% (inactive)
inhibition (MLK1): 51.4%
inhibition (MLK2): 0.179% (inactive)
inhibition (MOS): 5.27% (inactive)
inhibition (MSK1): 7.16% (inactive)
inhibition (MST2): 5.83% (inactive)
inhibition (MST4): 8.12% (inactive)
inhibition (NDR1): 2.42% (inactive)
inhibition (NEK1): 15.9% (inactive)
inhibition (NEK2): 8.33% (inactive)
inhibition (NEK6): 2.28% (inactive)
inhibition (NEK7): -3.45% (inactive)
inhibition (PAK3): 14.2% (inactive)
inhibition (PAK4): -9.87% (inactive)
inhibition (PAK5): 7.25% (inactive)
inhibition (PASK): 8.83% (inactive)
inhibition (PBK): 3.01% (inactive)
inhibition (PDGFRa(V561D)): 27% (inactive)
inhibition (PEK): 23.7% (inactive)
inhibition (PGK): -2.42% (inactive)
inhibition (PHKG1): 6.01% (inactive)
inhibition (PIM3): -2.3% (inactive)
inhibition (PKACg): 2.06% (inactive)
inhibition (PKCb2): 10.5% (inactive)
inhibition (PKCd): 15.8% (inactive)
inhibition (PKCg): 8.43% (inactive)
inhibition (PKD1): 24.8% (inactive)
inhibition (PKD2): 19.5% (inactive)
inhibition (PKD3): 40.8% (inactive)
inhibition (PKN1): 14.8% (inactive)
inhibition (PLK1): 59.2%
inhibition (PLK4): -13.5% (inactive)
inhibition (PRKX): 3.31% (inactive)
inhibition (RET(S891A)): 32.1% (inactive)
inhibition (RET(Y791F)): 12.8% (inactive)
inhibition (ROCK1): 0.774% (inactive)
inhibition (ROCK2): 1.96% (inactive)
inhibition (ROS): 11.2% (inactive)
inhibition (RSK1): 19.3% (inactive)
inhibition (RSK2): 19.9% (inactive)
inhibition (RSK4): 30.6% (inactive)
inhibition (SGK3): 0.522% (inactive)
inhibition (SIK): 2.55% (inactive)
inhibition (SLK): 43.3% (inactive)
inhibition (SRC): 2.22% (inactive)
inhibition (SRM): -1.3% (inactive)
inhibition (SRPK1): 17.3% (inactive)
inhibition (SYK): 1.08% (inactive)
inhibition (TAK1-TAB1): 34.1% (inactive)
inhibition (TIE2): 4.06% (inactive)
inhibition (TNK1): 27.1% (inactive)
inhibition (TRKA): 9.49% (inactive)
inhibition (TSSK3): -3.5% (inactive)
inhibition (TTK): -10.8% (inactive)
inhibition (TYK2): -0.177% (inactive)
inhibition (WNK2): 3.23% (inactive)
inhibition (p38d): 2.62% (inactive)
Structure (SMILES): Cc1cnc(-c2cnc(NCCNc3ccc(C#N)cn3)nc2-c2ccc(Cl)cc2Cl)[nH]1
